The text below walks through data of the METLIN SMRT retention time set (Domingo-Almenara et al. 2019).

This series in a line: gradient 5% acetonitrile 3 min, to 50% in 2 min, to 85% in 15 min, held 3 min, 100 µL/min. Particulars: column: Zorbax Extend-C18 2.1 x 50 mm; eluents: water / acetonitrile, 0.1% formic acid. An outline of the steps:
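In both positive and negative ionization mode, a quadrupole time-of-flight mass spectrometer coupled to HPLC analyzed pure standards run in mixtures of ~100 molecules. The Zorbax Extend-C18 column (2.1 × 50 mm, 1.8 μm) was operated at 100 μL/min with water and acetonitrile, each containing 0.1% formic acid. The dead volume was 40 μL and the dwell volume 900 μL. Retention time came from adduct peaks that were computationally picked and individually inspected by hand.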
`Cc1ccc2oc(N3CCCN(C(=O)c4ccc(-c5noc(C6CC6)n5)cc4)CC3)nc2n1` had an RP-LC retention time of 648 s.

With `CC(C)CNC(=O)c1ccc(CN2CCN(Cc3ccc(F)cc3)C(=O)C2=O)cc1`, the RP-LC retention time came to 732 s.

`CC(=O)N1CCC2(CC1)OC(=O)C(C)=C2C(=O)NCCC1=CCCCC1`: the RP-LC retention time was 738 s.

The compound `COc1ccc(-c2nnc(-c3ccccc3)o2)cc1S(N)(=O)=O` displayed an RP-LC retention time of 716 s.

`O=C(Nc1ccc(Cl)cc1C(=O)c1ccccc1)c1ccc(N2C(=O)CCC2=O)cc1` returned an RP-LC retention time of 896 s.

Take `COc1ccc(-c2nc3cc(C)ccn3c2Nc2ccccc2C)cc1`: the RP-LC retention time turned out to be 743 s.

In the case of `CN(C)C(=O)c1ccc2c(c1)nnn2CCNC(=O)Nc1ccc(Br)cc1F`, the RP-LC retention time worked out at 703 s.

Compound `CC1CCc2onc(C(=O)N3CCN(c4ccccn4)CC3)c2C1` (stereo not given) had an RP-LC retention time of 650 s.

Turning to `O=C(Cn1cnc(-c2cccs2)cc1=O)NCCn1nc(-c2cccs2)ccc1=O`, the RP-LC retention time is 666 s.

`CN(Cc1ccc(Cl)c(F)c1)C1CCc2nnc(C3CCOCC3)n2CC1` (stereo not given) showed an RP-LC retention time of 590 s.

Turning to `O=C(c1ccccc1OCC1CCCN(C2CCC3(CC2)OCCO3)C1)N1CCCC1` (stereo not given), the RP-LC retention time is 622 s.

Consider `CCOc1cc(=O)n2c(c1C(=O)Nc1cccc3c1CCCC3)CCCC2`, for which the RP-LC retention time stood at 804 s.

`COc1cc(Cl)ccc1C(=O)N1CCN(c2cc(-c3cccs3)[nH]n2)CC1` had an RP-LC retention time of 795 s.

Regarding `COc1ccc2c(c1)c(CN1CCC(C(=O)NCCN3CCN(C)CC3)CC1)cn2C`, the RP-LC retention time was 564 s.

For `CCOC(=O)c1noc2ncnc(N3CCCCCC3)c12`, the RP-LC retention time was 954 s.

The compound `COc1ccccc1C1CC(c2ccccc2NS(C)(=O)=O)=NN1C(=O)c1ccco1` (stereo not given) came in with an RP-LC retention time of 902 s.

Turning to `Cn1c(N2CCCC(C(=O)Nc3ccccc3)C2)cc(=O)n(C)c1=O` (stereo not given), the RP-LC retention time was 649 s.

With `CCOC(=O)c1c(C)oc2nc(C)nc(NCc3ccc(CC)cc3)c12`, the RP-LC retention time worked out at 1370 s.

Take `CCOCCCNC(=O)C(C)n1c(=O)c(C(F)(F)F)nc2ccccc21` (stereo not given): the RP-LC retention time was determined as 929 s.

Compound `Cc1nn(CC(=O)NC(C)c2ccc3c(c2)OCCO3)c(=O)c2c(C)n(-c3ccccc3)nc12` (stereo not given) showed an RP-LC retention time of 827 s.

As to `O=C(Nc1cccc(Cl)c1)Nc1nc(CC(=O)N2CCc3ccccc32)cs1`, the RP-LC retention time was found to be 978 s.

`Cc1ccc(CNS(=O)(=O)c2cc(-c3nc(C)c(C)s3)cs2)cc1` gave an RP-LC retention time of 1040 s.

With `O=C(Cn1nc2c(cc1=O)CCCC2)Nc1nc(-c2ccncc2)cs1`, the RP-LC retention time was 606 s.

`Cc1ccc(OCC(=O)N2CCCCC2c2nncn2CC2CC2)cc1` (stereo not given) came in with an RP-LC retention time of 767 s.

`COc1cccc(-c2csc(Nc3ccc(C)cn3)n2)c1` returned an RP-LC retention time of 902 s.

`CCCOc1ccc2nc(NC(=O)OC)[nH]c2c1` registered an RP-LC retention time of 652 s.

With `Cc1ccc(Nc2nc(C)cc(N3CCN(C(=O)Nc4ccccc4C)CC3)n2)cc1`, the RP-LC retention time was determined as 704 s.

`CCN1CCN(c2cc(C(=O)O)c3cc(NS(=O)(=O)c4cccc(F)c4)ccc3n2)CC1`: the RP-LC retention time stood at 600 s.

Turning to `COc1cccc(Nc2c(-c3ccc(SC)cc3)nc3cnccn23)c1`, the RP-LC retention time was 912 s.

With `Cc1ccc2c(n1)nn1c(C)cc(C)nc21`, the RP-LC retention time was found to be 557 s.

On to `COCC(=O)N(CC(=O)N1CCc2sccc2C1COc1ccccc1OC)C(C)C` (stereo not given), for which the RP-LC retention time stood at 795 s.

As for `COc1ccc(C2CC(=O)N(c3ccc4c(c3)OCCO4)C(=O)C2)cc1`, the RP-LC retention time was found to be 833 s.

The compound `CC(C)Cn1nc2c(S(=O)(=O)N3CCN(c4ccc(F)cc4)CC3)cccn2c1=O` yielded an RP-LC retention time of 914 s.

As to `Cc1ccccc1C(=O)NCCCn1cccc1`, the RP-LC retention time amounted to 762 s.

`Cc1nc(-c2noc(-c3cccnc3)n2)cn1CC(=O)NC1CCCC1` registered an RP-LC retention time of 646 s.

Compound `COc1ccc(NC(=O)N2CCC3(CC2)NC(=O)c2ccccc2O3)cc1` came in with an RP-LC retention time of 712 s.

`Cc1ccsc1C(=O)N1CCC2(CC1)NCc1ccccc1-n1ccnc12`: the RP-LC retention time turned out to be 588 s.

Compound `CCn1ccnc1CC1COc2ccccc2O1` (stereo not given) had an RP-LC retention time of 682 s.

`O=C(CCC1CCCN(S(=O)(=O)c2ccccc2)C1)N1CCN(c2ccccn2)CC1` (stereo not given) had an RP-LC retention time of 657 s.

With `COc1ccc(NC(=O)c2ccc(Cl)s2)c2ccccc12`, the RP-LC retention time was 920 s.

`Cc1ccc(-c2csc(NC(=O)CCCOc3ccc(Cl)cc3Cl)n2)cc1` showed an RP-LC retention time of 1290 s.

In the case of `O=C1CC(c2ccc3c(c2)OCO3)c2c(c(C(=O)O)cn2-c2cccc(F)c2)N1` (stereo not given), the RP-LC retention time was found to be 777 s.

Take `CS(=O)(=O)N1CCN(CCNC(=O)Nc2cccc(C(F)(F)F)c2)CC1`: the RP-LC retention time is 576 s.

`COc1ccc2c(c1)C1(CCN(C(=O)NCc3ccc(F)cc3)C1)C(=O)N2C` (stereo not given) had an RP-LC retention time of 755 s.

Take `Cc1cc(C)c2c(N3CCSCC3)nc(C(=O)NCCN3CCCC3)nc2n1`: the RP-LC retention time came out at 600 s.

As for `CCNC(=O)c1n[nH]c2c1CN(Cc1sccc1C)CC2`, the RP-LC retention time stood at 572 s.

For the compound `CC1=NS(=O)(=O)N(C)C=C1C(=O)OCc1ccccc1`, the RP-LC retention time was 882 s.

`Cc1ccsc1C(=O)N1CC(Oc2cccc(-c3nc(-c4ccccc4)no3)c2)C1`: the RP-LC retention time stood at 1280 s.

For the compound `O=C([C@@H]1C[C@H](F)CN1S(=O)(=O)c1ccc(F)cc1)N1CCOCC1`, the RP-LC retention time came out at 664 s.

Consider `Cc1oc(-c2ccc(C(=O)NCCN3CCN(C)CC3)cc2)nc1CSc1ccccc1`, for which the RP-LC retention time turned out to be 661 s.

Turning to `Cc1cccn2c(=O)c(-c3nn[nH]n3)cnc12`, the RP-LC retention time amounted to 646 s.

Consider `Cc1nc(-n2cccc2)sc1C(=O)OCc1cc(-c2ccc3c(c2)OCCO3)on1`, for which the RP-LC retention time amounted to 1210 s.

The compound `CCCNC(=O)Cc1csc(-n2nc(C)c(Cl)c2C)n1` yielded an RP-LC retention time of 904 s.

`Cc1ccc(-c2nnc(SCc3cc(=O)n4oc(C)cc4n3)o2)cc1`: the RP-LC retention time came out at 759 s.

`Fc1ccc(CN2CCC[C@H]2c2nc(C3CCOCC3)n[nH]2)c(Cl)c1` had an RP-LC retention time of 586 s.

`Cc1nc(-c2csc(S(=O)(=O)N3CCC(C(=O)Nc4ccc5c(c4)OCCO5)CC3)c2)no1` returned an RP-LC retention time of 868 s.

For the compound `Fc1ccc(Cc2nc(-c3cccc(-c4ccn[nH]4)c3)no2)cc1`, the RP-LC retention time was found to be 925 s.

`Cc1ccc(C)c(-c2csc(Nc3ccc(S(=O)(=O)Nc4cc(C)on4)cc3)n2)c1` registered an RP-LC retention time of 1070 s.

Consider `O=C(c1[nH]nc2c1CCc1ccccc1-2)N1CCC(c2noc(-c3ccccn3)n2)C1` (stereo not given), for which the RP-LC retention time was determined as 776 s.

For `Cc1ccc(C)c(-c2cc3c(=O)n(Cc4noc(-c5ccc6c(c5)OCO6)n4)ccn3n2)c1`, the RP-LC retention time was 1120 s.

In turn, `CC(C)CNC(=O)N1c2ccccc2CC1c1nc(C2CC2)no1` (stereo not given) had an RP-LC retention time of 925 s.

`CCc1ccc(C2=C(C)C(N3CCCN(C(C)=O)CC3)=NS2(=O)=O)cc1`: the RP-LC retention time turned out to be 745 s.

On to `O=C(Cc1ccc(F)cc1)NC1CCN(c2cc(-c3ccc(F)cc3)[nH]n2)C1` (stereo not given), for which the RP-LC retention time was determined as 720 s.

`Cc1cnc(C2CCC2)n1CCNS(=O)(=O)c1ccccc1` showed an RP-LC retention time of 615 s.

As to `CC1CCN(C(=O)c2ccccc2OCC2CCCN(C3CCCC3)C2)CC1` (stereo not given), the RP-LC retention time was 696 s.

The compound `COc1ccc(N2CC(c3noc(-c4ccccc4F)n3)CC2=O)cc1OC` (stereo not given) showed an RP-LC retention time of 818 s.

For the compound `COCCNC(=O)CC1Sc2ncccc2N(CC(C)C)C1=O` (stereo not given), the RP-LC retention time amounted to 659 s.

With `O=c1c2sccc2n(Cc2nc(-c3cccc(Br)c3)no2)c(=O)n1-c1ccc(F)cc1`, the RP-LC retention time was 1080 s.

In turn, `CCN(CC)C(=O)N1CC(Oc2ccc(-c3noc(COC)n3)cc2)C1` yielded an RP-LC retention time of 845 s.

The compound `CCCN(CCC#N)C(=O)CN1CC2=C(C1=O)C(c1ccccc1Cl)NC(=O)N2C` (stereo not given) came in with an RP-LC retention time of 634 s.

Consider `Cn1ncc(NC(=O)Cc2cccc(F)c2)c(N2CCOCC2)c1=O`, for which the RP-LC retention time worked out at 722 s.

Consider `Cc1ccn2cc(-c3ccc(NC(=O)c4ccc(C(F)(F)F)cc4)cc3)nc2n1`, for which the RP-LC retention time stood at 739 s.

For `CC(=O)c1ccc(NC(=O)C2CC(=O)N(c3ccc4oc(C)nc4c3)C2)cc1` (stereo not given), the RP-LC retention time was 685 s.

The compound `COC(=O)c1ccc(NC(=O)CN2CCc3[nH]c4c(C)ccc(F)c4c(=O)c3C2)cc1` displayed an RP-LC retention time of 604 s.

Regarding `O=C(NCC1CCCO1)C1c2ccccc2C(=O)N1Cc1ccc2c(c1)OCO2` (stereo not given), the RP-LC retention time was 728 s.

In turn, `COCCCNC(=O)Cn1ncc2c(C)n(Cc3ccc(Cl)cc3)c(C)c2c1=O` displayed an RP-LC retention time of 775 s.

`CCC(CC)C(=O)Nc1nc(-c2ccc3c(c2)NC(=O)C(C)O3)c(C)s1` (stereo not given) came in with an RP-LC retention time of 922 s.

Compound `COc1ccc(OC)c(CNS(=O)(=O)c2cc(-c3cnn4c(C)cc(C)nc34)ccc2OC)c1` came in with an RP-LC retention time of 935 s.

In the case of `CC(C)N1C(=O)c2cccnc2Sc2cc(NC(=O)Cc3ccsc3)ccc21`, the RP-LC retention time was 823 s.

`CC1(C(=O)NCc2ccccc2)CN(S(=O)(=O)c2ccccc2)CC(=O)N1C1CCCC1` (stereo not given): the RP-LC retention time amounted to 787 s.
